The record followed here is US20210038628A1, “NANOPARTICLE COMPOSITIONS” (JANUARY THERAPEUTICS, INC., priority 2018, published 2021).

Structures are written as SMILES. Counter-ions that a name gives are not always drawn.

This experiment concerns BxPC-3 (pancreatic adenocarcinoma) cell line. Put plainly: Cellular proliferation assay in BxPC-3 cells (Cell-Titer Glo). Particulars: Homo sapiens, 120 hours incubation, Cell-Titer Glo luminescence. In kind it is cell-based. As for the experimental part: Compounds are tested for their ability to impair cancer cell proliferation and/or induce cell death. For cellular proliferation studies, cultured cells are treated with the test compound for 24-120 hours. After compound treatment, cell proliferation is assessed by using methods including, but not limited to, Cell-Titer-Glo® (Promega), Alamar Blue, LIVE/DEAD® (ThermoFisher), BrdU incorporation, and live-cell imaging. The cancer lines used include, but are not limited to BxPC-3 (pancreatic cancer). Gemcitabine Hydrochloride serves as a control for activity.
BxPC-3 (pancreatic adenocarcinoma) cell line was purchased from the American Type Culture Collection (Catalog #CRL-1687) and grown in RPMI-1640 medium (e.g. Corning #10-040-CV) with 10% Heat Inactivated Fetal Calf Serum at 37° C. and 5% CO2 (as recommended by the ATCC).
Cultures were grown in […] plates to 80% confluence, and cells were trypsinized to a single-cell suspension. Cells were then resuspended in growth medium to a density of […]. They were then plated into 96-well assay plates (Corning #3917) in a volume of 100 ul/well (2,500 cells/well). Cells were allowed to adhere to plates for 24 h at 37° C. and 5% CO2). Compounds were then added to the wells using an […] serial dilution scheme (over 9 dilutions, generally ranging from 30 μM-30 pM), and the cells were incubated for an additional 120 hours. After 120 h, 90 ul of Cell-Titer Glo reagent (Promega #G7572) was added, and the plates were read using a luminescence counter (e.g., BioTek Synergy HTX at 100 ms read time).
As usually defined, the EC50 is the midpoint of the concentration-response curve. Turning to `CCCCCCCCCCCCCCCCCCC(=O)O[C@@H]1[C@@H](COP2(=O)OCc3ccccc3O2)O[C@@H](n2ccc(N)nc2=O)C1(F)F` (stereo partly drawn) [Compound 16, (2R,3R,5R)-5-(4-amino-2-oxopyrimidin-1(2H)-yl)-4,4-difluoro-2-(((2-oxido-4H-benzo[d][1,3,2]dioxaphosphinin-2-yl)oxy)methyl)tetrahydrofuran-3-yl Nonadecanoate], the half-maximal effective concentration (EC50) was less than 1 nM.

In the case of `CCCCCCCCCCCCC(=O)O[C@@H]1[C@@H](COP(=O)(OCOC(=O)CC(C)(C)C)OCOC(=O)CC(C)(C)C)O[C@@H](n2ccc(N)nc2=O)C1(F)F` [Compound 17], the EC50 fell in the range of 1 to 10 nM.

Consider `CCCCCCCCCCCCCCC(=O)OC1[C@@H](COP(=O)(OCOC(=O)CC(C)(C)C)OCOC(=O)CC(C)(C)C)O[C@@H](n2ccc(N)nc2=O)C1(F)F` (stereo partly shown) [Compound 27], for which the concentration for a half-maximal effect (EC50) is less than 1 nM. Turning to `Nc1ccn([C@@H]2O[C@H](CO)[C@@H](O)C2(F)F)c(=O)n1` [Gemcitabine Hydrochloride, reference compound], the half-maximal effective concentration (EC50) was 1 to 10 nM.
